Each structure is given as a SMILES string. Where only a bound is given, the exact number is not on record here.

The subject of one series is Puccinia recondita. Briefly: In vivo test on Puccinia recondita f. sp. tritici (wheat brown rust). The note with it: 240 h, wheat plants (Scipion variety), grading 10 days after contamination, good (at least 70%) or total protection. On the procedure: In vivo Test on Puccinia reconditef. Sp. tritici (Wheat Brown Rust)
The active ingredients tested are prepared by homogenisation in a mixture of acetone/tween/DMSO, then diluted with water to obtain the desired active material concentration. Wheat plants (Scipion variety) in starter cups, sown on 50/50 peat soil-pozzolana substrate and grown at 12° C., are treated at the 1-leaf stage (10 cm tall) by spraying with the active ingredient prepared as described above. Plants, used as controls, are treated with the mixture of acetone/tween/DMSO/water not containing the active material.
After 24 hours, the plants are contaminated by spraying the leaves with an aqueous suspension of Puccinia recondita spores (100,000 spores per ml). The spores are collected from a 10-day-old contaminated wheat and are suspended in water containing 2.5 ml/of tween 80 10%. The contaminated wheat plants are incubated for 24 hours at 20° C. and at 100% relative humidity, and then for 10 days at 20° C. and at 70% relative humidity. Grading is carried out 10 days after the contamination, in comparison with the control plants.
Usually pest or weed control stands for how far the test organism was held down. `CCOc1nn(C)cc1C(=O)N(C1CC1)S(=O)(=O)c1ccc(Oc2ccc(Br)c(O)c2)c(Cl)c1` [Compound 558]: the pest or weed control at 500 ppm was no less than 70%.
Same read-out and setting: with `CCCOc1nn(C)cc1C(=O)N(C1CC1)S(=O)(=O)c1ccc(Oc2ccc(C(F)(F)F)cc2)cc1` [Compound 320] the figure was no less than 70%; with `CCOc1nn(C)cc1C(=O)N(C1CC1)S(=O)(=O)c1ccc(OC2=CC(OC(F)(F)F)=CCC2)c(O)c1` [Compound 554], no less than 70%.
Same read-out and setting: with `CCCOc1nn(C)cc1C(=O)N(C1CC1)S(=O)(=O)c1ccc(Oc2cccc(C(F)(F)F)c2)cc1` [Compound 318] the figure was no less than 70%; with `CCCCOc1ccc(S(=O)(=O)N(C(=O)c2cn(C)nc2OCCC)C2CC2)cc1` [Compound 309], no less than 70%; with `CCc1nn(C)c(F)c1C(=O)N(C1CC1)S(=O)(=O)c1cnc(O)c(Br)c1` [Compound 448], no less than 70%.
Still for that read-out and setting: with `CCOc1nn(C)cc1C(=O)N(C1CC1)S(=O)(=O)c1ccc(Oc2ccc(F)c(O)c2)c(O)c1` [Compound 548] the figure was no less than 70%.
On to `CCOc1nn(C)cc1C(=O)N(C1CC1)S(=O)(=O)c1ccc(Oc2ccc(O)cc2O)c(O)c1` [Compound 555], for which the pest or weed control at 500 ppm was no less than 70%.
`CCCOc1nn(C)cc1C(=O)N(C1CC1)S(=O)(=O)c1ccc(Oc2ccc(Br)cc2)cc1` [Compound 328] showed a pest or weed control at 500 ppm of no less than 70%.
On the same count and under the same terms, the result for `COc1nn(C)cc1C(=O)N(C1CC1)S(=O)(=O)c1ccc(Oc2ccc(Cl)c(Cl)c2)c(Cl)c1` [Compound 513] reads no less than 70%; that for `CCCOc1nn(C)cc1C(=O)N(C1CC1)S(=O)(=O)c1ccc(Oc2ccccc2)cc1` [Compound 281], no less than 70%.
In turn, `Cn1nc(C(F)(F)F)c(C(=O)N(C2CC2)S(=O)(=O)c2ccc(F)c(F)c2F)c1F` [Compound 366] showed a pest or weed control at 500 ppm of no less than 70%.

System in the next series: not listed separately
Description: logP by HPLC on reversed-phase column (C 18), EEC Directive 79/B31 Annex V.A8, methods A and B. The class given is physicochemical. Particulars: HPLC reversed-phase C 18, method B: 40° C., 0.1% aqueous formic acid and acetonitrile, linear gradient 10% to 90% acetonitrile. Here is the method:
Calibration was carried out using unbranched alkan-2-ones (having 3 to 16 carbon atoms) with known logP values (determination of the logP values by the retention times using linear interpolation between two successive alkanones).
A word on the LogP: it is the decadic logarithm of the partition coefficient of the neutral form, usually between octanol and water. A lower LogP goes with a more hydrophilic compound. Compound `CCCOc1nn(C)cc1C(=O)N(C1CC1)S(=O)(=O)c1ccc(Oc2ccc(F)c(O)c2)cc1Br` [Compound 304] gave a LogP of 5.0.

The same series, now with this note: reversed-phase HPLC column (C 18), HPLC reversed-phase C 18, method A: 43° C., 0.1% aqueous phosphoric acid, acetonitrile, linear gradient 10% to 90% acetonitrile.
As a reminder, the chromatographic logP is a lipophilicity value derived from retention on a column. A high value points to higher lipophilicity. The compound `O=C(c1cc(Br)c(Br)s1)N(C1CC1)S(=O)(=O)c1ccccc1O` [Compound 15] returned a chromatographic logP of 4.07.
Still for that read-out and setting: the result for `Cn1cc(C(=O)N(C2CC2)S(=O)(=O)c2ccccc2O)c(C(F)(F)F)n1` [Compound 200] reads 2.71; that for `Cc1ncc(C(=O)N(C2CC2)S(=O)(=O)c2ccc(C(F)(F)F)cc2)s1` [Compound 61], 3.1.

The series is the same for the next values; noted with them: reversed-phase HPLC column (C 18), HPLC reversed-phase C 18, method B: 40° C., 0.1% aqueous formic acid and acetonitrile, linear gradient 10% to 90% acetonitrile.
The compound `CCCOc1nn(C)cc1C(=O)N(C1CC1)S(=O)(=O)c1ccc(Oc2ccc(Br)cc2)cc1Br` [Compound 300] yielded a chromatographic logP of 4.6.
Still for that read-out and setting: the result for `Cc1nc(C(F)(F)F)c(C(=O)N(C2CC2)S(=O)(=O)c2ccc(Oc3ccccc3)cc2)s1` [Compound 66] reads 4.4.
On to `Cn1nc(C(F)(F)F)c(C(=O)N(C2CC2)S(=O)(=O)c2ccc(Oc3ncc(C(F)(F)F)cc3O)cc2)c1F` [Compound 372], for which the chromatographic logP is 4.2.
Still for that read-out and setting: the result for `Cc1cc(C(=O)N(C2CC2)S(=O)(=O)c2cccc(O)c2O)nn1C` [Compound 74] reads 2.7.
In turn, `Cn1nc(C2CC2)c(C(=O)N(C2CC2)S(=O)(=O)c2ccc(O)c(O)c2O)c1F` [Compound 224] displayed a chromatographic logP of 3.9.
On the same count and under the same terms, the result for `CCCOc1nn(C)cc1C(=O)N(C1CC1)S(=O)(=O)c1ccc(Oc2ccccc2)cc1Br` [Compound 290] reads 4.1.
Same read-out and setting: the result for `CC(F)c1nn(C)cc1C(=O)N(C1CC1)S(=O)(=O)c1ccc(Oc2ccccc2)cc1` (stereo not shown) [Compound 121] reads 3.5; that for `Cn1nc(-c2ccccc2)c(C(=O)N(C2CC2)S(=O)(=O)c2ccc(O)c(O)c2O)c1F` [Compound 100], 4.3.
Take `CC(C)c1nn(C)c(F)c1C(=O)N(C1CC1)S(=O)(=O)c1ccc(C(F)(F)F)cc1O` [Compound 97]: the chromatographic logP stood at 4.
The compound `Cn1nc(C(F)(F)F)c(C(=O)N(C2CC2)S(=O)(=O)c2ccc(O)c(O)c2O)c1F` [Compound 108] registered a chromatographic logP of 4.1.
Same read-out and setting: the result for `Cn1cc(C(=O)N(C2CC2)S(=O)(=O)c2cccc(O)c2O)c(C(F)F)n1` [Compound 221] reads 2.9; that for `Cn1nc(C(F)(F)F)c(C(=O)N(C2CC2)S(=O)(=O)c2c(O)cccc2O)c1F` [Compound 360], 3.1; that for `Cc1nn(C)c(N(C)C)c1C(=O)N(C1CC1)S(=O)(=O)c1ccc(O)c(O)c1O` [Compound 229], 3.6.
Compound `Cn1nc(C(F)F)c(C(=O)N(C2CC2)S(=O)(=O)c2ccc(Oc3ccccc3)cc2)c1F` [Compound 107] gave a chromatographic logP of 3.8.
`CCc1nn(C)c(F)c1C(=O)N(C1CC1)S(=O)(=O)c1ccc(Oc2ccc(C(F)(F)F)cc2)cc1` [Compound 389] had a chromatographic logP of 4.3.
Same read-out and setting: the result for `Cc1nn(C)c(Oc2ccc(O)cc2)c1C(=O)N(C1CC1)S(=O)(=O)c1ccccc1O` [Compound 261] reads 3.6.
Same read-out and setting: the result for `Cc1cc(C(=O)N(C2CC2)S(=O)(=O)c2ccc(Oc3ccc(Br)cc3)cc2)c(C)o1` [Compound 7] reads 4.9; that for `CC(C)c1nn(C)c(F)c1C(=O)N(C1CC1)S(=O)(=O)c1ccccc1C(F)(F)F` [Compound 98], 3.4; that for `CCc1nn(C)c(F)c1C(=O)N(C1CC1)S(=O)(=O)c1cc(O)cc(O)c1` [Compound 376], 3.9.

The series is the same for the next values; noted with them: reversed-phase HPLC column (C 18), LogP method A: HPLC reversed-phase C 18, 43° C., 0.1% aqueous phosphoric acid / acetonitrile, linear gradient 10% to 90% acetonitrile.
In turn, `CCc1onc(C(C)C)c1C(=O)N(C1CC1)S(=O)(=O)c1ccc(O)c(C(F)(F)F)c1` [Compound 594] gave a chromatographic logP of 4.82.
The same measure, in the same setting: with `O=C(c1cccnc1)N(C1CC1)S(=O)(=O)c1ccc(C(F)(F)F)cc1` [Compound 637] the figure was 2.74; with `Cc1cc(C)c(C(=O)N(C2CC2)S(=O)(=O)c2ccc(O)c(O)c2O)c(Cl)n1` [Compound 651], 4.16.
Compound `CCc1onc(C(C)C)c1C(=O)N(C1CC1)S(=O)(=O)c1ccc(C(F)(F)F)cc1` [Compound 590] came in with a chromatographic logP of 4.37.
`CCc1c(C(=O)N(C2CC2)S(=O)(=O)c2ccc(C(C)(C)C)cc2)sc(=O)n1C1CC1` [Compound 632] showed a chromatographic logP of 3.01.
In turn, `CCc1c(C(=O)N(C2CC2)S(=O)(=O)c2cccc(O)c2)sc(=O)n1C1CC1` [Compound 615] returned a chromatographic logP of 2.01.
The compound `CCc1onc(C(C)C)c1C(=O)N(C1CC1)S(=O)(=O)c1ccc(O)cc1O` [Compound 596] had a chromatographic logP of 4.41.
`Cc1cc(C)c(C(=O)N(C2CC2)S(=O)(=O)c2cccc(O)c2O)c(O)n1` [Compound 650] yielded a chromatographic logP of 3.57.
On to `O=C(c1cccnc1)N(C1CC1)S(=O)(=O)c1cccc(O)c1` [Compound 642], for which the chromatographic logP was 2.3.
Same read-out and setting: the result for `Cc1c(C(=O)N(C2CC2)S(=O)(=O)c2ccc(C(F)(F)F)cc2)sc(=O)n1C` [Compound 612] reads 2.01; that for `COCCn1c(C)c(C(=O)N(C2CC2)S(=O)(=O)c2ccc(O)c(C(F)(F)F)c2)sc1=O` [Compound 619], 2.01; that for `CCc1c(C(=O)N(C2CC2)S(=O)(=O)c2ccc(Cl)c(C(F)(F)F)c2)sc(=O)n1C1CC1` [Compound 629], 3.01.

The same series, now with this note: reversed-phase HPLC column (C 18), LogP method B: HPLC reversed-phase C 18, 40° C., 0.1% aqueous formic acid / acetonitrile, linear gradient 10% to 90% acetonitrile.
Compound `CCOc1nn(C)cc1C(=O)N(C1CC1)S(=O)(=O)c1ccc(Oc2ccc(Br)c(O)c2)c(Cl)c1` [Compound 558] came in with a chromatographic logP of 4.9.
`CCOc1nn(C)cc1C(=O)N(C1CC1)S(=O)(=O)c1ccc(OC2=CC(OC(F)(F)F)=CCC2)c(O)c1` [Compound 554]: the chromatographic logP came out at 4.5.
Same read-out and setting: with `CCc1nn(C)c(F)c1C(=O)N(C1CC1)S(=O)(=O)c1cnc(O)c(Br)c1` [Compound 448] the figure was 3.5; with `CCOc1nn(C)cc1C(=O)N(C1CC1)S(=O)(=O)c1ccc(Oc2ccc(F)c(O)c2)c(O)c1` [Compound 548], 4.4; with `CCOc1nn(C)cc1C(=O)N(C1CC1)S(=O)(=O)c1ccc(Oc2ccc(O)cc2O)c(O)c1` [Compound 555], 4.7.
Still for that read-out and setting: the result for `CCCCCc1ccc(Oc2ccc(S(=O)(=O)N(C(=O)c3cn(C)nc3OC)C3CC3)c(Br)c2)cc1` [Compound 482] reads 5.4; that for `Cc1nn(C)c(C(=O)N(C2CC2)S(=O)(=O)c2cccc(O)c2O)c1Cl` [Compound 586], 3.7.
On the same count and under the same terms, the result for `CCOc1nn(C)cc1C(=O)N(C1CC1)S(=O)(=O)c1ccc(Oc2cccc(Br)c2)cc1Br` [Compound 540] reads 4.2; that for `COc1nn(C)cc1C(=O)N(C1CC1)S(=O)(=O)c1c(O)cc(Cl)cc1O` [Compound 461], 2.7.
`Cc1oncc1C(=O)N(C1CC1)S(=O)(=O)c1ccc(O)c(O)c1O` [Compound 604] yielded a chromatographic logP of 2.6.
Same read-out and setting: with `CCOc1nn(C)cc1C(=O)N(C1CC1)S(=O)(=O)C1C=CC(Oc2cccc(C(F)(F)F)c2)=C(O)C1` (stereo not shown) [Compound 549] the figure was 4.4.
The same measure, in the same setting: the result for `Cc1cnn(C)c1C(=O)N(C1CC1)S(=O)(=O)c1ccc(O)c(O)c1O` [Compound 659] reads 3.6; that for `CCCCCc1ccc(Oc2ccc(S(=O)(=O)N(C(=O)c3cn(C)nc3OCC)C3CC3)c(Br)c2)cc1` [Compound 560], 5.6.
On the same count and under the same terms, with `CCOc1nn(C)cc1C(=O)N(C1CC1)S(=O)(=O)C1C=CC(Oc2ccc(Br)c(O)c2)=CC1O` (stereo not shown) [Compound 544] the figure was 4.3.

These data come from patent US7932283B2, “Fungicide N-cyclopropyl-sulfonylamide derivatives” (Bayer Cropscience AG, priority 2006, dated 2011).
